What follows are molecules tested against T1, GCase (Homo sapiens, UniProt P04062) (assay: activation of GCase in a live cell PFB assay in HELA cells).
T1 construct: endogenous in cells; host or cells: HeLa cells
T1 sequence (P04062 40-536): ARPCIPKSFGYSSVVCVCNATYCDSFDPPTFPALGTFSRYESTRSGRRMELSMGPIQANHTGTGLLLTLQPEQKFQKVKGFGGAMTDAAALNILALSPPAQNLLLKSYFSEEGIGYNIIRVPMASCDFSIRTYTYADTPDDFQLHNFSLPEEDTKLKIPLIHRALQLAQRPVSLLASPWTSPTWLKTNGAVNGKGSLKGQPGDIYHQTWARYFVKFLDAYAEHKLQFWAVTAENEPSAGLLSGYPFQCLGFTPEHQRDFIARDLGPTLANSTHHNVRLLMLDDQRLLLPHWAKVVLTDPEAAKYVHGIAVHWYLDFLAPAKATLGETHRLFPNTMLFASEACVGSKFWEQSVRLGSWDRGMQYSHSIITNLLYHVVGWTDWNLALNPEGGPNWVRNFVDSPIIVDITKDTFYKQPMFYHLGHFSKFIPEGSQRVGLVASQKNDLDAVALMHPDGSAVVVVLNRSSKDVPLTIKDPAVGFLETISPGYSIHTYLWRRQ
Assay type: cell-based

SMILES	EC50
COc1ccc(OCC2CCN(c3cncc(N)n3)CC2)cc1 [Compound 431]	50 to 100 µM
CC(=O)N1CCC(c2cc3nc(N4CCCC(COc5ccccc5)C4)cnc3n2C)CC1 (stereo not drawn) [Compound 41, 1-(4-{5-Methyl-2-[3-(phenoxymethyl)piperidin-1-yl]-5H-pyrrolo[2,3-b]pyrazin-6-yl}piperidin-1-yl)ethan-1-one]	> 100 µM
COc1ccc(OCC2CCN(c3nnc(N)s3)CC2)cc1 [Compound 429]	> 100 µM
CCc1nc2ccccc2n1CC(=O)N1CCCC(COc2ccccc2)C1 (stereo not drawn) [Compound 140]	10 to 50 µM
CC(C)c1cc(C(=O)N2C[C@@H](C)C[C@H](COc3cccnc3C(F)(F)F)C2)[nH]n1 [Compound 234b, (3-Isopropyl-1H-pyrazol-5-yl)((3S,5S)-3-methyl-5-(((2-(trifluoromethyl)pyridin-3-yl)oxy)methyl)piperidin-1-yl)methanone]	10 to 50 µM
Cn1c(-c2ccccc2)cc2ncc(N3CCCC(COc4cccnc4C(F)(F)F)C3)nc21 (stereo not drawn) [Compound 33, 5-Methyl-6-phenyl-3-(3-(((2-(trifluoromethyl)pyridin-3-yl)oxy)methyl)piperidin-1-yl)-5H-pyrrolo[2,3-b]pyrazine]	10 to 50 µM
O=C(Cc1ccnn(-c2ccccc2)c1=O)N1CCCC(COc2ccccc2)C1 (stereo not drawn) [Compound 44, 4-(2-Oxo-2-(3-(phenoxymethyl)piperidin-1-yl)ethyl)-2-phenylpyridazin-3(2H)-one]	> 100 µM
FC(F)Cn1ncc2ncc(N3CCC(COc4cccc(C(F)(F)F)n4)CC3)nc21 [Compound 328, 2-({1-[1-(2,2-Difluoroethyl)-1H-pyrazolo[3,4-b]pyrazin-6-yl]piperidin-4-yl}methoxy)-6-(trifluoromethyl)pyridine]	10 to 50 µM
COc1ccc(CCCC(=O)N2CCCC(COc3ccccc3)C2)cc1 (stereo not drawn) [Compound 182]	10 to 50 µM
COc1ccc(OCC2CCN(C(=O)c3cnc(O)cn3)CC2)cc1 [Compound 452]	> 100 µM
CC(CC1CCCN(c2cnc3cnn(CC(F)F)c3n2)C1)c1ccccc1C(F)(F)F (stereo not drawn) [Compound 66, 1-(2,2-Difluoroethyl)-6-(3-(2-(2-(trifluoromethyl)phenyl)propyl)piperidin-1-yl)-1H-pyrazolo[3,4-b]pyrazine]	10 to 50 µM
COc1ccc(OCC2CCN(C(=O)Nc3ccc(C#N)cc3F)CC2)cc1 [Compound 443]	50 to 100 µM
COc1ccc(OCC2CCN(C(=O)c3c(C)cccc3OC)CC2)cc1 [Compound 481]	10 to 50 µM
COc1ccc(OCC2CCN(C(=O)c3cnc(N)nc3C)CC2)cc1 [Compound 462]	> 100 µM
COc1ccc(OCC2CCN(C(=O)CN3C(=O)CCC3C)CC2)cc1 (stereo not drawn) [Compound 483]	50 to 100 µM
FC(F)(F)c1cccc(OCC2CN(c3cncc(-c4nncs4)n3)CCC2(F)F)n1 (stereo not drawn) [Compound 64, 2-[4,4-Difluoro-3-({[6-(trifluoromethyl)pyridin-2-yl]oxy}methyl)piperidin-1-yl]-6-(1,3,4-thiadiazol-2-yl)pyrazine]	10 to 50 µM
CC(CSC(F)(F)F)C(=O)N1CCCC(COc2ccccc2)C1 (stereo not drawn) [Compound 133]	> 100 µM

Second part, the molecule after the results:

EC50	SMILES
10 to 50 µM	FC(F)Cn1ncc2ncc(N3CC4CC4(COc4cccnc4C(F)(F)F)C3)nc21 (stereo not drawn) [Compound 260, 3-[1-(2,2-Difluoroethyl)-1H-pyrazolo[3,4-b]pyrazin-6-yl]-1-({[2-(trifluoromethyl)pyridin-3-yl]oxy}methyl)-3-azabicyclo[3.1.0]hexane]
10 to 50 µM	O=C(Cc1c[nH]c2ccccc12)N1CCC(Oc2ccc(C(F)(F)F)cn2)CC1 [Compound 7]
10 to 50 µM	COc1ccc(OCC2CCN(Cc3ncc[nH]3)CC2)cc1 [Compound 450]
10 to 50 µM	C[C@@H]1CC[C@H](COc2ccnc(C(F)(F)F)c2)CN1c1cnc2cnn(CC(F)F)c2n1 [Compound 278, 1-(2,2-Difluoroethyl)-6-((2R,5S)-2-methyl-5-(((2-(trifluoromethyl)pyridin-4-yl)oxy)methyl)piperidin-1-yl)-1H-pyrazolo[3,4-b]pyrazine]
10 to 50 µM	FC(F)Cn1ncc2ncc(N3C[C@@H]4[C@@H](COc5ccc(C(F)(F)F)nc5)[C@@H]4C3)nc21 [Compound 63, (1R,5S,6S)-3-[1-(2,2-difluoroethyl)-1H-pyrazolo[3,4-b]pyrazin-6-yl]-6-({[6-(trifluoromethyl)pyridin-3-yl]oxy}methyl)-3-azabicyclo[3.1.0]hexane]
< 10 µM	FC(F)Cn1ncc2ncc(N3CCC(COc4cccnc4C(F)(F)F)CC3)nc21 [Compound 323, 3-({1-[1-(2,2-Difluoroethyl)-1H-pyrazolo[3,4-b]pyrazin-6-yl]piperidin-4-yl}methoxy)-2-(trifluoromethyl)pyridine]
10 to 50 µM	CC1CCC(COc2cccnc2C(F)(F)F)CN1C(=O)c1ccc2cc[nH]c2c1 (stereo not drawn) [Compound 128, (1H-Indol-6-yl)(2-methyl-5-(((2-(trifluoromethyl)pyridin-3-yl)oxy)methyl)piperidin-1-yl)methanone]
10 to 50 µM	O=C(N1CCCC(COc2ccccc2)C1)C1(c2nnc(-c3ccccc3)o2)CCOCC1 (stereo not drawn) [Compound 46, (3-(Phenoxymethyl)piperidin-1-yl)(4-(5-phenyl-1,3,4-oxadiazol-2-yl)tetrahydro-2H-pyran-4-yl)methanone]
10 to 50 µM	CCc1cc(N2CCC(COc3ccc(OC)cc3)CC2)ncn1 [Compound 464]
10 to 50 µM	COc1ccc(OCC2CCN(C(=O)c3ccc(C#CC(C)(C)O)o3)CC2)cc1 [Compound 433]
10 to 50 µM	C[C@@H]1C[C@H](CN(C)C23CC(C2)C3)CN(c2cnc3cnn(CC(F)F)c3n2)C1 [Compound 297]
< 10 µM	CC(Oc1cccnc1C(F)(F)F)C1CCCN(c2cnc3cnn(CC(F)F)c3n2)C1 (stereo not drawn) [Compound 26, 1-(2,2-Difluoroethyl)-6-(3-(1-((2-(trifluoromethyl)pyridin-3-yl)oxy)ethyl)piperidin-1-yl)-1H-pyrazolo[3,4-b]pyrazine]
10 to 50 µM	COc1cc(C(=O)N2CCCC(COc3ccccc3)C2)c(Cl)cc1Cl (stereo not drawn) [Compound 155]
10 to 50 µM	O=C(c1nnc(C2(c3ccccc3)CCCC2)o1)N1CCCC(COc2ccccc2)C1 (stereo not drawn) [Compound 3, (3-(phenoxymethyl)piperidin-1-yl)(5-(1-phenylcyclopentyl)-1,3,4-oxadiazol-2-yl)methanone]
10 to 50 µM	FC(F)Cn1ncc2ncc(N3CC(COc4cccnc4C(F)(F)F)CC(F)(F)C3)nc21 (stereo not drawn) [Compound 21, 3-({1-[1-(2,2-difluoroethyl)-1H-pyrazolo[3,4-b]pyrazin-6-yl]-5,5-difluoropiperidin-3-yl}methoxy)-2-(trifluoromethyl)pyridine]
< 10 µM	N#Cc1cccnc1OC1CCN(C(=O)C2(c3ccc(Cl)cc3)CCCC2)CC1 [Compound 370]
< 10 µM	CC1CC(COc2cccnc2C(F)(F)F)CN(C(=O)c2ccc3cc[nH]c3c2)C1 (single isomer, unassigned) [Compound 252b]
< 10 µM	CC1CCC(COc2cccnc2C(F)(F)F)CN1c1cnc2cnn(C3COC3)c2n1 (stereo not drawn) [Compound 117, 6-(2-Methyl-5-(((2-(trifluoromethyl)pyridin-3-yl)oxy)methyl)piperidin-1-yl)-1-(oxetan-3-yl)-1H-pyrazolo[3,4-b]pyrazine]
< 10 µM	FC1(COc2cccc(C(F)(F)F)n2)CCCN(c2cncc(-c3nncs3)n2)C1 (stereo not drawn) [Compound 65, 2-[3-Fluoro-3-({[6-(trifluoromethyl)pyridin-2-yl]oxy}methyl)piperidin-1-yl]-6-(1,3,4-thiadiazol-2-yl)pyrazine]
